In the COVID Moonshot data (paper PMC11187573), “Identification of SARS-CoV-2 Mpro inhibitors through deep reinforcement learning for de novo drug design and computational chemistry approaches” (RSC Medicinal Chemistry, 2024):

Assays:
[1] = molecular target: SARS-CoV-2 Main Protease (SARS-CoV-2) (UniProt P0DTD1)
[2] = molecular target: SARS-CoV-2 Main Protease (SARS-CoV-2) (UniProt P0DTD1); remark: listed apart in the source

Compound | inhibition ([1]; 50.0 µM) [%] | inhibition ([2]; 20.0 µM) [%] | inhibition ([2]; 50.0 µM) [%] | relative solubility at 20 uM | relative solubility at 100 uM | inhibition ([1]; 20.0 µM) [%] | IC50 [2] [nM] | IC50 [1] [nM]
O=C(Cc1ccccc1OC1CCOC1)OCc1cnn[nH]1 (stereo not given) | 20.7 | 0 | 0 | 1 | 1 |  |  | 
Nc1cccc(C2CN(C(=O)CCl)Cc3ccccc32)c1 (stereo not given) | 53.4 |  | 100 | 0.97 | 0.96 | 48 | 11400 | 
Cc1ccncc1NC(=O)Nc1cccc(C#N)c1 | 44.3 | 23.8 | 55.7 | 1 | 0.97 | 19.4 | 49300 | 
NC1=Nc2nc3ccccc3n2C(c2ccc(-c3nc4ccccc4s3)o2)N1 (stereo not given) | -3.34 |  | 38.8 | 0.53 | 0.23 | -25.2 |  | 
O=C(C1CCN(c2ccncc2)CC1)N1CCOCC1 | -22.6 | 0 | 0 | 1 | 1 |  |  | 
O=C(NCCNc1cccnn1)c1ccccc1NS(=O)(=O)c1cc(F)ccc1F | 7.83 | 0 | 12.1 | 1 | 1 |  |  | 
Cc1ccncc1NC(=O)CCc1ccn[nH]1 | -26.3 |  | -1.76 | 1 | 1 | 18.9 |  | 
C#Cc1ccc(CNC(=O)N2CCOCC2)cc1 | 2.46 | 0 | 0 | 1 | 1 | 1.4 |  | 
Cc1ccncc1NC(=O)C12CC(CO1)C2 | 12.2 |  | 0 | 1 | 1 | -0.804 |  | 
C=CC(=O)N(c1ccc(C(C)(C)C)cc1)C(C(=O)NC(C)(C)C)c1cnccc1C (stereo not given) | -12.5 | 0 | 0 | 0.99 | 1 | -14 |  | 
O=C(Cc1ccc(O)cc1)Nc1cccc2cc[nH]c12 | -4.9 |  | 0 | 1 | 1 | -9.57 |  | 
C=CC(=O)Nc1cccc(OC2CC(=O)N2)c1 (stereo not given) | 2.19 |  | 2.88 | 1 | 1 | 5.39 |  | 
C=CC(=O)N(c1ccc(N(C)C)c(C)c1)C(C(=O)Nc1ccc(OC)cc1)c1cccnc1 (stereo not given) | 7.05 | 0 | 2.05 | 0.88 | 0.77 | 2.56 |  | 
N#Cc1ccccc1S(=O)(=O)N1CCN(C(=O)c2cc(=O)[nH]c3cc(F)ccc23)CC1 | 52.4 |  | 0 | 0.94 | 0.95 | 1.1 |  | 
CCSCC1CCN(c2ccc(S(N)(=O)=O)cc2)CC1 | -25.8 | 26 | 40.2 | 1 | 1.01 |  |  | 
O=C(Nc1nncn1C1CC1)C1CCOc2ccc(Cl)cc21 (stereo not given) | 54.6 |  | 1.9 | 1 | 1 | 46.7 |  | 598
CN(C(=O)C1CCOc2ccc(Cl)cc21)c1ccc(Cl)cn1 (stereo not given) | 9.88 |  | 0 | 0.99 | 0.98 | 0.542 |  | 
CC(C)c1scnc1NC(=O)C1CCOc2ccc(Cl)cc21 (stereo not given) | 6.85 |  | 0 | 1 | 0.99 | 10 |  | 
C=CC(=O)N(c1ccc(C(C)(C)C)cc1)C(C(=O)Nc1cccc(F)c1C)c1cccnc1 (stereo not given) | -14.8 | 0 | 0 | 1 | 0.98 |  |  | 
COc1cc(CNC(=O)Cc2ncc[nH]2)c2ccccc2n1 | -23.1 | 0 | 15.6 | 1 | 1 |  |  | 
C=CC(=O)N(c1cc(C(C)(C)C)on1)C(C(=O)NCCc1cccc(F)c1)c1cncc(C)c1 (stereo not given) | 24.8 |  | 0 | 1 | 0.91 | 17.5 |  | 
COC1(CC(=O)Nc2cnccc2C)CC1 | 13.8 |  | 0 | 1.01 | 1 | -5.47 |  | 
Cc1ccncc1NC(=O)C1C2CCOCC21 (stereo not given) | -10.8 |  | 0 | 1 | 1 | -18.9 |  | 
NS(=O)(=O)CCc1ccccc1CN1CCN(C(=O)CCl)CC1 | 103 |  | 100 | 1 | 1 | 101 | 834 | 
Cc1ccncc1CC(=O)Nc1cccc(Cl)c1 | 67.4 |  | 88.6 | 1 | 1 | 42.2 | 26400 | 
CC(NC(=O)CCl)c1cc(Cl)cc(-c2ccc(S(N)(=O)=O)cc2)c1 (stereo not given) | 94.6 |  | 79 | 0.99 | 0.99 | 98.4 | 526 | 

Compound | inhibition ([1]; 50.0 µM) [%] | inhibition ([2]; 20.0 µM) [%] | inhibition ([2]; 50.0 µM) [%] | relative solubility at 20 uM | relative solubility at 100 uM | inhibition ([1]; 20.0 µM) [%] | IC50 [2] [nM] | IC50 [1] [nM]
C=CC(=O)N(c1ccc(C(C)(C)C)cc1)C(C(=O)NC(C)(C)C)c1cncc(Br)c1C (stereo not given) | 7.84 | 12.9 | 35.3 | 0.98 | 0.92 | -4.32 |  | 
Sc1nc2ccccc2c2nc(CCc3ccccc3)nn12 | -6.97 |  | 0 | 0.93 | 0.89 | -0.837 |  | 
Cc1ccc(NC2CCN(c3ccc(S(N)(=O)=O)cc3)CC2)cc1 | 5.62 | 28.4 | 40 | 0.92 | 0.84 | 2.67 |  | 
N#Cc1cc(CN2CCN(C(=O)CCl)CC2)c2ccccc2c1 | 93.1 | 97.6 |  | 0.85 | 0.79 | 83.6 | 1160 | 
O=C(Cc1c[nH]c2ncccc12)N1CCC(N2CCCS2(=O)=O)CC1 | -1.92 | 0 |  | 1 | 1.01 | 18.5 |  | 
C=CC(=O)N(c1cc(C(C)(C)C)on1)C(C(=O)NC(C)(C)C)c1cccnc1 (stereo not given) | 16.1 | 28.7 |  | 0.98 | 0.91 | 7.86 |  | 
N#Cc1cc(Cl)cc(NC(=O)Nc2cccnc2)c1 | 43.9 | 6.78 | 36.5 | 0.99 | 0.88 | 23 |  | 
N#Cc1ccc(CNC(=O)Cc2c[nH]c3ncccc23)cc1 | 1.71 | 1.12 |  | 1 | 0.99 | 2.44 |  | 
C=CC(=O)N(c1ccc(S(F)(F)(F)(F)F)cc1)C(C(=O)Nc1ccc(OC)cc1)c1cccnc1 (stereo not given) | 30.6 | 10.4 |  | 0.83 | 0.71 | 15.7 |  | 
C=CC(=O)N(c1ccc(C(F)(F)F)cc1)C(C(=O)Nc1ccccc1Br)c1cccnc1 (stereo not given) | 22 | 9.6 |  | 0.94 | 0.83 | 15.6 |  | 
O=C(Cc1cccc(Cl)c1)Nn1cnc2ccccc2c1=O | 87 |  | 0 | 1 | 1 | 70.9 |  | 
O=C(Cc1c[nH]c2ncccc12)Nc1cccc(Cl)c1 | 9.34 | 0 |  | 0.99 | 0.97 | 5.95 |  | 
CC1CC(C)CN(C(=O)c2ccccc2NC(=O)NCc2ccoc2)C1 (stereo not given) | 8.34 | 0 | 0 | 1 | 0.99 |  |  | 
Cc1nn(C(C)C)c(C)c1CC(=O)Nc1nncn1C1CC1 | -6.89 |  | 5.29 | 1 | 1 | -5.19 |  | 
CC(C(=O)Nc1cnccc1C)=C1CC1 | -8.02 |  | 0 | 1 | 1 | 2.11 |  | 
CC(NC(=O)c1ccc2cn[nH]c2c1)C(=O)Nc1ccc(-n2cnc3ccccc32)cc1 (stereo not given) | 3.73 |  | 12.8 | 0.7 | 0.51 | 13 |  | 
O=C(O)[C@@H](Cc1nc(=O)cc[nH]1)NCc1ccc(Cl)s1 (stereo in doubt) | 4.85 |  | 2.07 | 1.01 | 1 | 6.7 |  | 
N#Cc1ccc(O)c(NC(=O)Cc2cccnc2)c1 | -8.48 |  | 0 | 1 | 0.95 | -15.4 |  | 
Cc1cc(C)cc(NC(=O)Cc2cnn(C)c2C)c1 | -5.28 |  | 0 | 1 | 1.01 | -12.1 |  | 
O=C(O)[C@@H](Cc1nc(=O)cc[nH]1)NC[C@@H]1C[C@@H]2C=C[C@H]1C2 (stereo in doubt) | 26.4 |  | 29.5 | 1 | 1 | 13.7 |  | 
Nc1ncncc1CNC(=O)Nc1ccccc1OCCn1ccnc1 | 15.8 | 1.47 | 9.19 | 1 | 1 |  |  | 
CCS(=O)(=O)N1CCC(C(=O)Nc2cc(Cl)ccc2O)CC1 | -2.7 |  | 0 | 1 | 1 | -1.05 |  | 
C=CC(=O)N(c1ccc(C(C)C)nc1)C(C(=O)Nc1c(C)cccc1CC)c1cccnc1 (stereo not given) | 12.5 | 0 |  | 1 | 0.95 | 5.61 |  | 
O=S(=O)(CCc1ccccc1)Nc1cccnc1 | -32.5 |  | 17.2 | 0.98 | 0.99 | -0.803 |  | 
Cc1ccncc1NC(=O)Cc1cc(Cl)c2c(c1)OCCO2 | 22.2 |  | 10.9 | 1 | 1 | 9.83 |  | 
C=CC(=O)N(c1ccc(N(C)C)c(C)c1)C(C(=O)NC(C)(C)C)c1cccnc1 (stereo not given) | 8.8 | 0 | 14.4 | 0.98 | 0.95 | 2.89 |  | 

Compound | inhibition ([1]; 50.0 µM) [%] | inhibition ([2]; 20.0 µM) [%] | inhibition ([2]; 50.0 µM) [%] | relative solubility at 20 uM | relative solubility at 100 uM | inhibition ([1]; 20.0 µM) [%] | IC50 [2] [nM] | IC50 [1] [nM]
O=C(NCc1cccnn1)Nc1cccc(OCCN2CCOCC2)c1 | 1.22 | 0 | 0 | 1 | 0.99 | 1.16 |  | 
CC(C)(Cn1c(C2CCC(=O)N2)nnc1N1CCCC(C(N)=O)C1)c1ccccc1F (stereo not given) | 6.51 |  | 29.4 | 1 | 0.99 | -2.8 |  | 
NS(=O)(=O)c1ccc(N2CCC(Nc3ccccc3)CC2)cc1 | 9.57 | 27.2 | 22 | 1 | 1 |  |  | 
CC(C)c1ncncc1NC(=O)C(C)c1cccc(Cl)c1 (stereo not given) | 19 |  | 1.6 | 1.01 | 1 | 6.43 |  | 
Cc1cccc(CC(=O)Nc2cccnc2C#N)c1 | -5.94 | 0 |  | 1 | 1 | 8.4 |  | 
O=C(Nc1cnccc1CO)[C@@H]1COc2ccc(Cl)cc21 (stereo in doubt) | 73.1 |  | 58.6 | 1.01 | 1 | 46.1 | 18400 | 
C=CC(=O)N(c1ccc(C(C)(C)C)cc1)C(C(=O)NCCc1cccc(F)c1)c1cncc(Cl)c1 (stereo not given) | 57.9 |  | 60.6 | 0.71 | 0.32 | 24.2 | 2110 | 
C=CC(=O)N(c1ccc(C2(C)CC2)cc1)C(C(=O)Nc1cccc(F)c1C)c1cccnc1 (stereo not given) | 34.7 | 0 | 1.04 | 1 | 1 |  |  | 
O=C(Cc1cccnc1)Nc1cc(Cl)ccc1O | 23.3 |  | 6.62 | 1.01 | 0.98 | -1.54 |  | 
C=CC(=O)N(c1ccc(S(F)(F)(F)(F)F)cc1)C(C(=O)Nc1ccc(OC)cc1C)c1cccnc1 (stereo not given) | 12.2 | 0 |  | 0.92 | 0.75 | 5.52 |  | 
O=C(Cc1ccc(Cl)s1)Nc1cccnc1 | 11.5 | 0 |  | 1 | 1 | 0.922 |  | 
C=CC(=O)N(c1cc(C(C)(C)C)n[nH]1)C(C(=O)Nc1c(C)cccc1CC)c1cccnc1 (stereo not given) | 4.71 | 0 |  | 0.92 | 0.78 | 4.05 |  | 
Cc1cccc(NC(=O)C(C#N)C(=O)C2CCC2)c1 (stereo not given) | 1.6 | 0.951 | 0 | 0.99 | 0.99 |  |  | 
Cc1ccncc1NC(=O)Cc1cccc(OC(F)(F)F)c1 | -22.5 |  | 12.6 | 0.98 | 0.98 | -3.16 |  | 
N#Cc1ccccc1S(=O)(=O)N1CCN(C(=O)c2cc(=O)[nH]c3ccc(F)cc23)CC1 | 29.9 |  | 29.9 | 0.99 | 0.92 | 14.7 |  | 
C=CC(=O)N(c1ccc(C(C)(C)C)cc1)C(C(=O)NCCCOC)c1cccnc1 (stereo not given) | 19.4 | 12.2 | 39.5 | 0.99 | 0.98 | 3.35 |  | 
O=C(CCl)N1CCOc2cccc(-c3cccnc3)c21 | 7.44 |  | -5.89 | 1 | 1 | 1.76 |  | 
O=C(NCc1cccc(C(=O)N2CCOCC2)c1)c1cnc2c(c1)c(=O)[nH]c(=O)n2Cc1ccccc1 | -3.76 |  | 0 | 0.99 | 0.9 | 2.69 |  | 
Cc1ccncc1N(C)C(=O)[C@@H]1C[C@H]1CF (stereo in doubt) | 1.67 |  | 4.57 | 1.01 | 1.01 | -7.38 |  | 
O=C(CCl)N1CCC(C(=O)N2CCCCC2)CC1 | 31.4 | 0.506 |  | 1 | 1 | 18.5 |  | 
C=C1CC1C(=O)NC(C)c1ccc(S(=O)(=O)NC)cc1 (stereo not given) | -0.972 | 0 | 0 | 1 | 1 | -2.67 |  | 
CCOCC(=O)NCc1ccc(CNC(=O)Cn2nnc3ccccc32)cc1 | 1.31 |  | 0 | 0.99 | 1 | 1.82 |  | 
N#CCN1CCN(Cc2cc(Cl)cc3ccccc23)CC1 | 5.55 | 10.4 | 10.2 | 0.91 | 0.92 |  |  | 
O=C(Cn1cccn1)N1CCN(S(=O)(=O)c2cccc(F)c2)CC1 | 1 | 0 |  | 1 | 1 | -11.9 |  | 
